Reference: patent publication US6407116B1, “Nitrogenous fused-ring compounds, process for the preparation of the same, and drugs” (Takeda Chemical Industries, Inc., priority 1997, dated 2002)
Counter-ions that a name gives are not always drawn.

What was measured:
guinea-pig eosinophils = assay: Chemotaxis inhibition assay: LTB4-induced chemotaxis in guinea-pig eosinophils; format: cell-based; settings: test substance 1×10^−5 M, LTB4 10^−8 M, 2 hours; for inhibition at 10 µM: Cavia porcellus, Eosinophil
Experimental: 1) Guinea-pig Eosinophil Preparation
Male Hartley guinea-pigs received 2 ml of equine serum (Bio-Whittaker, Inc) intraperitoneally once a week for successive 8 weeks. 48 hours after the last administration, 75 ml of physiological saline was injected into the peritoneal cavity, and the fluid was recovered and centrifuged at 400 G for 5 minutes. […] Erythrocytes in the isolated cell pellet, if any, were removed by hypotonic treatment (suspended in water for 30 seconds).
2) Chemotaxis Inhibition Assay
600 μl of LTB4 suspended in Hanks-Hepes-HSA (final concentration of 10^−8 M, Cascade Biochemical Ltd.) was placed in the lower compartment of a 24-well plate and kept at 37° C. for 30 minutes in a CO2 gas incubator. After mounting a Chemotaxicell (polycarbonate membrane, pore size 3 μm, thickness 10 μm), which served as an upper compartment, on the 24-well plate described above, 200 μl of eosinophil suspension (5×10^6 cells/ml), which had been incubated at 37° C. for 15 minutes in a thermostat chamber, was added to the upper compartment. After allowing to react for 2 hours in the CO2 gas incubator, the Chemotaxicell was removed, and 60 μl of 2% (w/v) EDTA solution in physiological saline was added to the lower compartment. After cooling on ice, the cells which underwent the chemotaxis into the lower compartment were counted using a blood cell counter (Coulter Counter (trade name)). In the procedure described above, the test substance was dissolved in N,N-dimethylformamide (DMF) and added to the upper and lower compartments at the final concentration of 10^−5 M.
% Chemotaxis inhibition=[…] [Equation 2]
The results are shown in [Table 2].

[1] = system: histamine-induced dermal vascular hyperpermeability; assay: Effect on histamine-induced dermal vascular hyperpermeability in guinea pigs; format: in vivo, guinea pig; settings: 3 mg/kg oral administration, 1 hour before intradermal histamine, male Hartley guinea pigs; for inhibition in vivo at 3 mg/kg: Cavia porcellus
Experimental: Effect on Histamine-induced Dermal Vascular Hyperpermeability in Guinea Pigs
Male Hartley guinea pigs (weighing about 500 g) were used. […] After 30 minutes, the animal was hit on its head to make it unconscious, and cut at its neck to sacrifice by exsanguination. The dorsal skin was peeled and examined for the long and short diameters (mm) of each blue spot which were then multiplied to give a product, which was averaged to give a vascular permeability index. Each substance was suspended in 5% gum arabic solution, and given orally in the volume of 0.2 ml/100 g body weight 1 hour before histamine administration. Control animals received the same volume of 5% gum arabic solution. A % inhibition of this reaction was calculated according to [Equation 1].
% Inhibition of histamine-induced dermal vascular hyperpermeability=100×(1-vascular permeability index in treatment group/vascular permeability index in control group) [Equation 1]

| melting point | Molecule | inhibition at 10 µM (guinea-pig eosinophils) | also measured |
| --- | --- | --- | --- |
| 131 to 133 °C | Cl.O=c1[nH]c(=O)n(CCCN2CCC(OC(c3ccccc3)c3ccccc3)CC2)c2ncccc12 [Example 6, 2,4-Dioxo-1-[3-(4-diphenylmethoxypiperidino)propyl]-1,2,3,4-tetrahydropyrido[2,3-d]pyrimidine hydrochloride] | 67% |  |
|  | O=c1nc2n(CCCCN3CCC(OC(c4ccccc4)c4ccccc4)CC3)ccnc-2c(=O)[nH]1 [Example 8, 2,4-Dioxo-8-[4-(4-diphenylmethoxypiperidino)butyl]-1,2,3,4-tetrahydropteridine] |  | Inhibition of histamine-induced dermal vascular hyperpermeability (%) [1]: 92% |
| 209 to 210 °C | O=c1[nH]c(=O)n(CCCCN2CCC(OC(c3ccccc3)c3ccccc3)CC2)c2ccc(Cl)cc12 [Example 10, 6-Chloro-2,4-dioxo-1-[4-(4-diphenylmethoxypiperidino)butyl]-1,2,3,4-tetrahydroquinazoline] | 50% |  |
| 180 to 182 °C | Cc1ccc2c(c1)c(=O)[nH]c(=O)n2CCCCN1CCC(OC(c2ccccc2)c2ccccc2)CC1 [Example 13, 2,4-Dioxo-1-[4-(4-diphenylmethoxypiperidino)butyl]-6-methyl-1,2,3,4-tetrahydroquinazoline] | 66% |  |
|  | CCOC(=O)CCn1c(=O)c2ccccc2n(CCCCN2CCC(OC(c3ccccc3)c3ccccc3)CC2)c1=O [Example 17, Ethyl 2,4-dioxo-1-[4-(4-diphenylmethoxypiperidino)butyl]-1,2,3,4-tetrahydroquinazoline-3-propionate hydrochloride] |  | inhibition in vivo at 3 mg/kg [1]: 91% |
| 229 to 231 °C | CC(C)(C)n1c(=O)c2ccccc2n(CCCCN2CCC(OC(c3ccccc3)c3ccccc3)CC2)c1=O.Cl [Example 22, 3-(1,1-Dimethylethyl)-2,4-dioxo-1-[4-(4-diphenylmethoxypiperidino)butyl]-1,2,3,4-tetrahydroquinazoline hydrochloride] | 72% |  |
| 99 to 100 °C | COc1ccc(Cn2c(=O)c3ccccc3n(CCCCN3CCC(OC(c4ccccc4)c4ccccc4)CC3)c2=O)cc1 [Example 26, 2,4-Dioxo-1-[4-(4-diphenylmethoxypiperidino)butyl]-3-(4-methoxybenzyl)-1,2,3,4-tetrahydroquinazoline] | 50% |  |
|  | CCOC(=O)C(C)(C)n1c(=O)c2cc(Cl)ccc2n(CCCCN2CCC(OC(c3ccccc3)c3ccccc3)CC2)c1=O [Example 35, Ethyl 2-[6-chloro-1-[4-(4-diphenylmethoxypiperidino)butyl]-2,4-dioxo-1,2,3,4-tetrahydroquinazolin-3-yl]isobutyrate hydrochloride] |  | inhibition in vivo at 3 mg/kg [1]: 87% |
|  | O=C(O)CCCn1c(=O)c2ccccc2n(CCCCN2CCC(OC(c3ccccc3)c3ccccc3)CC2)c1=O [Example 53, 2,4-Dioxo-1-[4-(4-diphenylmethoxypiperidino)butyl]-1,2,3,4-tetrahydroquinazoline-3-butyric acid] |  | inhibition in vivo at 3 mg/kg [1]: 90% |
| 145 to 150 °C | O=c1c2ccccc2n(CCCCN2CCC(OC(c3ccccc3)c3ccccc3)CC2)c(=O)n1CCO [Example 55, 2,4-Dioxo-1-[4-(4-diphenylmethoxypiperidino)butyl]-3-(2-hydroxyethyl)-1,2,3,4-tetrahydroquinazoline] | 64% |  |
|  | O=c1c2ccccc2n(CCCCN2CCC(OC(c3ccccc3)c3ccccc3)CC2)c(=O)n1CCCc1ccccc1 [Example 58, 2,4-Dioxo-1-[4-(4-diphenylmethoxypiperidino)butyl]-3-(3-phenylpropyl)-1,2,3,4-tetrahydroquinazoline hydrochloride] | 84% |  |
|  | COC(=O)COC(=O)Cn1c(=O)c2ccccc2n(CCCCN2CCC(OC(c3ccccc3)c3ccccc3)CC2)c1=O [Example 69, Methoxycarbonylmethyl 2,4-dioxo-1-[4-(4-diphenylmethoxypiperidino)butyl]-1,2,3,4-tetrahydroquinazoline-3-acetate hydrochloride] | 96% |  |
|  | COC(=O)Cc1ccc2c(c1)c(=O)[nH]c(=O)n2CCCCN1CCC(OC(c2ccccc2)c2ccccc2)CC1 [Example 86, Methyl 2,4-dioxo-1-[4-(4-diphenylmethoxypiperidino)butyl]-1,2,3,4-tetrahydroquinazoline-6-acetate] | 55% |  |
|  | COC(=O)C1(n2c(=O)c3ccccc3n(CCCCN3CCC(OC(c4ccccc4)c4ccccc4)CC3)c2=O)CCCCC1 [Example 97, Methyl 1-[2,4-dioxo-1-[4-(4-diphenylmethoxypiperidino)butyl]-1,2,3,4-tetrahydroquinazolin-3-yl]-1-cyclohexylcarboxylate hydrochloride] | 62% |  |
| 155 to 157 °C | O=C(O)CCCCCn1c(=O)c2ccccc2n(CCCCN2CCC(OC(c3ccccc3)c3ccccc3)CC2)c1=O [Example 98, 2,4-Dioxo-1-[4-(4-diphenylmethoxypiperidino)butyl]-1,2,3,4-tetrahydroquinazoline-3-hexanoic acid] | 50% |  |
|  | O=C(O)CCCCn1c(=O)c2cc(F)ccc2n(CCCCN2CCC(OC(c3ccccc3)c3ccccc3)CC2)c1=O [Example 101, 2,4-Dioxo-1-[4-(4-diphenylmethoxypiperidino)butyl]-6-fluoro-1,2,3,4-tetrahydroquinazoline-3-valeric acid] | 50% |  |
|  | COC(=O)CNC(=O)Cn1c(=O)c2ccccc2n(CCCCN2CCC(OC(c3ccccc3)c3ccccc3)CC2)c1=O [Example 109, 2,4-Dioxo-1-[4-(4-diphenylmethoxypiperidino)butyl]-N-methoxycarbonylmethyl-1,2,3,4-tetrahydroquinazoline-3-acetamide hydrochloride] | 55% |  |
| 170 to 172 °C | CCOC(=O)CN(C)C(=O)Cn1c(=O)c2ccccc2n(CCCCN2CCC(OC(c3ccccc3)c3ccccc3)CC2)c1=O.Cl [Example 110, 2,4-Dioxo-1-[4-(4-diphenylmethoxypiperidino)butyl]-N-ethoxycarbonylmethyl-N-methyl-1,2,3,4-tetrahydroquinazoline-3-acetamide hydrochloride] | 122% |  |
| 123 to 124 °C | CCOC(=O)CCNC(=O)Cn1c(=O)c2ccccc2n(CCCCN2CCC(OC(c3ccccc3)c3ccccc3)CC2)c1=O.Cl [Example 111, 2,4-Dioxo-1-[4-(4-diphenylmethoxypiperidino)butyl]-N-(2-ethoxycarbonylethyl)-1,2,3,4-tetrahydroquinazoline-3-acetamide hydrochloride] | 80% |  |
|  | CN(CC(=O)O)C(=O)Cn1c(=O)c2ccccc2n(CCCCN2CCC(OC(c3ccccc3)c3ccccc3)CC2)c1=O [Example 114, N-Carboxylmethyl-2,4-dioxo-1-[4-(4-diphenylmethoxypiperidino)butyl]-N-methyl-1,2,3,4-tetrahydroquinazoline-3-acetamide] | 54% |  |
|  | O=C(O)CNC(=O)CCn1c(=O)c2ccccc2n(CCCCN2CCC(OC(c3ccccc3)c3ccccc3)CC2)c1=O [Example 116, N-Carboxylmethyl-2,4-dioxo-1-[4-(4-diphenylmethoxypiperidino)butyl]-1,2,3,4-tetrahydroquinazoline-3-propionamide hydrochloride] | 52% |  |
|  | N-(2-Carboxylethyl)-carboxylmethyl-2,4-dioxo-1-[4-(4-diphenylmethoxypiperidino)butyl]-N-methyl-1,2,3,4-tetrahydroquinazoline-3-acetamide [Example 115] |  | Inhibition (%) of LTB4-induced chemotaxis (guinea-pig eosinophils): 56% |
